Where “and” joins values, the source holds several entries; their conditions need not be identical. Identical values can stand only once.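 Dose response: 5 concentrations. Exposure: 48 h. Format: 96-well plates. Endpoint: linear interpolation; highest concentration if not reached. GI50 marks 50% less growth. The concentration for full growth arrest is given as TGI.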
Legend:
Experiment in all cases: inhibition of tumour cell growth, NCI panel, 48 h
UACC-62 melanoma = test system: UACC-62 melanoma
SK-OV-3 ovarian = test system: SK-OV-3 ovarian
HCT-15 colon = test system: HCT-15 colon
M19-MEL melanoma = test system: M19-MEL melanoma
DLD-1 colon = test system: DLD-1 colon
RXF 393 renal = test system: RXF 393 renal
SNB-19 CNS = test system: SNB-19 CNS
OVCAR-4 ovarian = test system: OVCAR-4 ovarian
HL-60(TB) leukemia = test system: HL-60(TB) leukemia
MCF7 breast = test system: MCF7 breast
T-47D breast = test system: T-47D breast

| Structure (SMILES) | TGI (UACC-62 melanoma) | TGI (SK-OV-3 ovarian) | TGI (HCT-15 colon) [µM] | TGI (M19-MEL melanoma) [µM] | TGI (DLD-1 colon) [µM] | TGI (RXF 393 renal) | TGI (SNB-19 CNS) [µM] | TGI (OVCAR-4 ovarian) | TGI (HL-60(TB) leukemia) | TGI (MCF7 breast) | TGI (T-47D breast) | GI50 (HL-60(TB) leukemia) |
| --- | --- | --- | --- | --- | --- | --- | --- | --- | --- | --- | --- | --- |
| CCCCCCCCC[C@@H]1C[C@H](O)[C@H](Cc2ccccc2)N1C(=O)OC(C)(C)C | 33.3 µM | 39 µM | 33.9 | 30.9 | 33.8 | 32.2 µM | 33.5 | 33 µM | 48.7 µM | – | – | – |
| O=C1N(c2ccccc2)N=C2c3ccncc3C3=NN(c4ccccc4)C(=O)C123 (stereo unspecified) | > 57.1 µM | > 100 µM | > 100 | – | – | > 100 µM | > 100 | > 100 µM | > 100 µM | > 100 µM | > 100 µM | – |
| CN(C)CCNc1nc2c(c(=O)n(C)c(=O)n2C)n1C | > 100 µM | > 100 µM | > 100 | – | – | > 100 µM | > 100 | > 100 µM | > 100 µM | > 100 µM | > 100 µM | – |
| O=[N+]([O-])c1cnccc1-n1nnc2ccccc21 | 33.4 µM | 56.6 µM | 66.1 | 49.6 | > 96.6 | 46.8 µM | > 100 | > 60.5 µM | > 54.7 µM | 36.5 µM | – | – |
| O=c1oc2ccc([N+](=O)[O-])cc2cc1-c1csc(-c2ccccc2)n1 | > 100 µM | > 100 µM | > 100 | – | – | > 100 µM | > 100 | > 100 µM | > 100 µM | > 100 µM | > 100 µM | – |
| CCOC(=O)CCNC(=O)c1cc(C)cc2c1Oc1c(cc(C)cc1C(=O)NCCC(=O)OCC)S2 | > 100 µM | > 100 µM | > 100 | – | – | 58 µM | > 100 | > 100 µM | > 100 µM | > 100 µM | > 100 µM | – |
| CN(C)C=Nc1cccc2c1NSN2 | > 100 µM | > 100 µM | > 100 | – | – | > 100 µM | > 100 | > 100 µM | > 100 µM | > 100 µM | > 100 µM | – |
| COc1ccc(OC/C(N=Cc2cccnc2)=N/NC(=O)c2ccncc2)cc1 | > 100 µM | > 100 µM | > 100 | – | – | > 100 µM | > 100 | > 100 µM | > 100 µM | > 100 µM | > 100 µM | – |
| O=[N+]([O-])C(=C(\Cl)NCCO)/C(Cl)=C(/Cl)Br | 4.78 µM | 28.5 µM | 2.78 | – | – | 5.95 µM | 18 | 3.01 µM | 2.48 µM | 2.59 µM | 3.84 µM | – |
| COc1ccc(-c2c(C#N)c(N)n(C3OC(COC(C)=O)C(OC(C)=O)C(OC(C)=O)C3OC(C)=O)c(=S)c2C#N)cc1 (stereo unspecified) | 73.4 µM and 47.3 µM | 78.1 µM and 85 µM | > 100 | – | – | 84.6 µM and 72.2 µM | > 100 | > 100 µM and 55.6 µM | > 100 µM and 48.5 µM | > 100 µM and 60.9 µM | > 100 µM and 46.5 µM | > 100 µM and 27.9 µM |
| O=c1[nH]nc(-c2ccccc2)c2[nH]c3c(c12)CCCc1ccccc1-3 | 25.1 µM | > 100 µM | 10.4 | – | – | 36 µM | 26.8 | 33.6 µM | 46.2 µM | 50.9 µM | 57.5 µM | – |
| FC1(F)SC2CCCCCCCCCCC2C1(F)F (stereo unspecified) | > 100 µM | > 100 µM | > 100 | – | – | 54 µM | > 100 | > 100 µM | 30.3 µM | 44.2 µM | > 100 µM | – |
| CC1=NN(c2cccc(S(=O)(=O)O)c2)C2(C1)SCC(=O)N2c1nc2ccccc2s1 (stereo unspecified) | > 100 µM | > 100 µM | > 100 | – | – | > 100 µM | > 100 | > 100 µM | > 100 µM | > 100 µM | > 100 µM | – |
| CCOC(=O)C(/C=N/C(N)=S)=C(/O)c1ccccc1 | > 100 µM | > 100 µM | > 100 | – | – | > 100 µM | > 100 | > 100 µM | > 100 µM | > 100 µM | > 100 µM | – |
| CC1(C)CC(=O)C(/C=N/c2nc(-c3cccc([N+](=O)[O-])c3)cs2)=C(O)C1 | 42.2 µM | > 100 µM | 23.8 | – | – | 46.9 µM | 46.9 | > 100 µM | > 100 µM | 34 µM | 37.3 µM | – |
| O=C1CCCC1C(O)(C(F)(F)Cl)C(F)(F)Cl (stereo unspecified) | > 10 µM | > 10 µM | > 10 | – | – | > 10 µM | > 10 | > 10 µM | > 10 µM | > 10 µM | > 10 µM | – |
